Test results published in publication PMC3509539, “seco-Briarellinone and Briarellin S, Two New Eunicellin-Based Diterpenoids from the Panamanian Octocoral Briareum asbestinum” (Marine Drugs, 2012).
Several values for one entry are separate records, joined by “and”; a condition that tells them apart may be missing. Equal values may be shown once.

Legend:
[1] = tested on: peritoneal macrophages from C57Bl/6 mice; test: Cytotoxicity testing, MTT assay; assay type: cell-based, mouse (C57Bl/6); conditions: inhibitory concentrations 5–20 μg/mL, macrophages after collection of the supernatant
Procedure: Figure 4 Inhibition of nitric oxide (NO) production induced by lipopolisacharides (LPS) in macrophages. (A) Peritoneal macrophages from C57Bl/6 mice were treated with different concentrations of compounds 1–3 (1, 2, 5, 10, or 20 μg/mL) 1 h before the stimulus with LPS (1 μg/mL). After 24 h of stimulus with LPS, supernatants were collected for NO determination. (B) Cell viabilities were assessed using 3-(4,5-dimethylthiazol-2-yl)-2,5-diphenyltetrazolium bromide (MTT) assay after collection of the supernatant. Results represent mean ± S.E.M. and are representative of two different experiments. * P < 0.005 compared with LPS stimulus alone. C, control; Comp, compound. To evaluate the cytotoxicity of compounds 1–3, we used the MTT (Methylthiazolyldiphenyl-tetrazolium bromide) assay. Cell supernatants were removed for NO determination and were added to each well, 100 μL of MTT at a concentration of 0.5 mg/mL dissolved in RPMI. The assay plate was incubated overnight at 37 °C in 5% of CO2 atmosphere. In this assay the MTT is reduced to formazan by the activity of NAD-dependent dehydrogenase of living cell mitochondria to form a purple product. […] The color was analyzed at 570 nm using a micro-ELISA plate reader. The percent of viable cells was calculated using the formula: % viability = (ODsample × 100%)/(ODcontrol). […]

[2] = tested on: NO production by thioglycolate elicited peritoneal macrophages from C57Bl/6 mice stimulated with LPS; test: Inhibition of NO production induced by LPS in macrophages (Griess); assay type: cell-based, mouse (C57Bl/6); conditions: LPS 1 μg/mL; for IC50: Mus musculus, Peritoneal macrophage, primary murine macrophages, compound added 1 h before the stimulus, NO after 24 h
Description: The anti-inflammatory properties of diterpenes from natural sources have been described previously. However, anti-inflammatory activity of the briarellins family has not been evaluated before. The inhibition of NO production is frequently used as an indicator of anti-inflammatory activity. NO is produced by a family of enzymes called NO synthases (NOS) and it mediates many physiological processes. Inflammatory conditions lead to production of high levels of NO regulated by the inducible NOS (iNOS) enzyme. NO is produced by many cell types in vitro in response to several stimuli such as microbial products (e.g., bacterial lipopolisacharide (LPS)), cytokines, viral proteins, among others. We evaluated the production of NO by primary murine macrophages stimulated with LPS (1 μg/mL) in the presence or absence of different concentrations of compounds 1–3. […] The levels of NO found at higher concentrations (20 μg/mL) of compound 1 might be attributed to the non pyrogen-free conditions of the isolation and purification process of compounds. Possible contaminations with potential microbial products in the compounds preparations disguise the inhibitory effect expected at these concentrations. […] Further studies are necessary to find out if compound 3 is able to inhibit other signaling pathways leading to the production of inflammatory mediators different than NO.
Figure 4 Inhibition of nitric oxide (NO) production induced by lipopolisacharides (LPS) in macrophages. […] (B) Cell viabilities were assessed using 3-(4,5-dimethylthiazol-2-yl)-2,5-diphenyltetrazolium bromide (MTT) assay after collection of the supernatant. […]
To determine the anti-inflammatory capacity of compounds 1–3, thioglycolate elicited macrophages from C57Bl/6 mice were used. […] The concentration of NO was measured using the Griess Reagent System from Promega. […]
Data are presented as mean ± S.E.M. Results were analyzed using a statistical software package (GraphPad Prism 5). […]

IC50 [2]	SMILES	Cell viability (MTT) [1]	Effect on the production of NO induced by LPS in macrophages ([2]; 1, 2, 5, 10 or 20 μg/mL, 24 h)
1.71 µg/mL and 4.7 µM	CC(=O)CC1OC2C3C(CC(=O)C(C)(O)C13)C(C)COC2(C)C=CC=O (centres unmarked) [compound 1, seco-Briarellinone]	do not interfere with the cell viability	
10 µg/mL and 20.4 µM	C=C1CC2OC3C4C(CC(=O)C(C)(O)C24)C(C)COC3(C)C(OC(=O)CCCCCCC)CC1O (centres unmarked) [compound 2, Briarellin S]	do not interfere with the cell viability	
	CC(=O)CC1OC2[C@@H]3C(C[C@H](C)[C@H](OC(C)=O)[C@H]13)[C@H](C)CO[C@]2(C)/C=C/C=O (some centres unmarked) [compound 3, seco-asbestinin]		did not show any significant effect
